Data as given in patent publication US8921398B2 (Boehringer Ingelheim International GmbH, priority 2011, dated 2014).

Molecular target: T1, human GPR119 (Homo sapiens, UniProt Q8TDV5)
T1 construct: expression vector for human GPR119 cDNA (Acc. No. NP_848566); expressed in transfected cells
T1 sequence (Q8TDV5 1-335): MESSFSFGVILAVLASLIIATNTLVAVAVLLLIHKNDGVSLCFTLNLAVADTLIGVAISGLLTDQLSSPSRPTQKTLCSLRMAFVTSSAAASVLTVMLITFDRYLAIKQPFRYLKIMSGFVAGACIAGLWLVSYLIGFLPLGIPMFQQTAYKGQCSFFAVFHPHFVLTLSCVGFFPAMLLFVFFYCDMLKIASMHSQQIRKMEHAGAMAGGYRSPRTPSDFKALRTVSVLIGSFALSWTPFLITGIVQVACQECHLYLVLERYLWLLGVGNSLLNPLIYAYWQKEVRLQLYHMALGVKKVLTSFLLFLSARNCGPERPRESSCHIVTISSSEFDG
Assay: AlphaScreen cAMP assay in MIN6 cells stably transfected with human GPR119
Type: cell-based
Details: Min-6/hGPR119 cells, 45 minutes incubation at room temperature
Description: The compounds of formula I according to the invention modulate the activity of the G-protein-coupled receptor GPR119. The effect of the compounds on the activation of GPR119 and on the stimulation of intracellular cAMP concentration is determined using the AlphaScreen cAMP Assay Kit (Cat.No.#6760625R) made by PerkinElmer.
MIN6 cells [Miyazaki J et al. Endocrinology. 1990 July; 127(1):126-32] are stably transfected with an expression vector for human GPR119 cDNA (Acc. No. NP_848566). Min-6/hGPR119 cells are cultured in DMEM, 10% FBS, 50 μM β-mercaptoethanol, 0.3 mg/mL Geniticin, 2 mM GlutaMAX at 37° C. 5% CO2. For the assay, the cells are seeded in Optiplates (white, 384-well, 160W-barcoded, TC, sterile with lid, Cat.No.#6007688 (Perkin Elmer); 10000 cells/well; 50 μl). The plates covered with lids are then incubated for 24 hours at 37° C./5% CO2. After the medium is aspirated from the wells completely, 10 μl of the test compound are added, the compounds are diluted using stimulating buffer (140 mM NaCl, 3.6 mM KCl, 0.5 mM NaH2PO4, 0.5 mM MgSO4, 1.5 mM CaCl2, 10 mM Hepes, 5 mM NaHCO3; pH 7.4. 0.5 mM IBMX and 0.1% BSA, the final DMSO concentration is 1%). After 45 minutes incubation at room temperature (approx. 20° C.), the cAMP concentrations are determined using the AlphaScreen cAMP Assay Kit (Cat.No.#6760625R from PerkinElmer).

SMILES	EC50 [nM]
CC(C)(C)c1noc(N2CCC(N(C(=O)c3cc(-c4ccc(C#N)cc4F)on3)C3CC3)CC2)n1 [Example 30, 5-(4-Cyano-2-fluoro-phenyl)-isoxazole-3-carboxylic acid [1-(3-tert-butyl-[1,2,4]oxadiazol-5-yl)-piperidin-4-yl]-cyclopropyl-amide]	5
CCc1cnc(N2CCC(N(C(=O)c3ccc(-c4cnco4)nc3)C3CC3)CC2)cn1 [Example 37, N-Cyclopropyl-N-[1-(5-ethyl-pyrazin-2-yl)-piperidin-4-yl]-6-oxazol-5-yl-nicotinamide]	59
CCCc1noc(N2CCC(N(C(=O)c3cnc(-n4ccnc4C)nc3)C3CC3)CC2)n1 [Example 22, 2-(2-Methyl-imidazol-1-yl)-pyrimidine-5-carboxylic acid cyclopropyl-[1-(3-propyl-[1,2,4]oxadiazol-5-yl)-piperidin-4-yl]-amide]	137
N#CCc1ccc(-c2ncc(C(=O)N(C3CC3)C3CCN(c4nc(-c5ccccc5)no4)CC3)cn2)cc1 [Example 9, 2-(4-Cyanomethyl-phenyl)-pyrimidine-5-carboxylic acid cyclopropyl-[1-(3-phenyl-[1,2,4]oxadiazol-5-yl)-piperidin-4-yl]-amide]	19
CC(C)c1noc(N2CCC(N(C(=O)c3ccc(-c4ccc(S(C)(=O)=O)cc4)nc3)C3CC3)CC2)n1 [Example 6, N-Cyclopropyl-N-[1-(3-isopropyl-[1,2,4]oxadiazol-5-yl)-piperidin-4-yl]-6-(4-methanesulfonyl-phenyl)-nicotinamide]	96
CCOc1ccc(-c2ncc(C(=O)N(C3CC3)C3CCN(c4nc(CC)no4)CC3)cn2)cn1 [Example 10, 2-(6-Ethoxy-pyridin-3-yl)-pyrimidine-5-carboxylic acid cyclopropyl-[1-(3-ethyl-[1,2,4]oxadiazol-5-yl)-piperidin-4-yl]-amide]	101
CC(C)c1noc(N2CCC(N(C(=O)c3ccc(-c4cnco4)nc3)C3CC3)CC2)n1 [Example 35, N-Cyclopropyl-N-[1-(3-isopropyl-[1,2,4]oxadiazol-5-yl)-piperidin-4-yl]-6-oxazol-5-yl-nicotinamide]	33
CCOc1ccc(-c2ncc(C(=O)N(C3CC3)C3CCN(c4nc(-c5ccccc5)no4)CC3)cn2)cn1 [Example 7, 2-(6-Ethoxy-pyridin-3-yl)-pyrimidine-5-carboxylic acid cyclopropyl-[1-(3-phenyl[1,2,4]oxadiazol-5-yl)-piperidin-4-yl]amide]	25
CC(C)c1noc(N2CCC(N(C(=O)c3cc(-c4ccc(C#N)cc4F)on3)C3CC3)CC2)n1 [Example 29, 5-(4-Cyano-2-fluoro-phenyl)-isoxazole-3-carboxylic acid cyclopropyl-[1-(3-isopropyl-[1,2,4]oxadiazol-5-yl)-piperidin-4-yl]-amide]	3
Cc1cnc(N2CCC(N(C(=O)c3cnc(-n4ccnc4C)nc3)C3CC3)CC2)cn1 [Example 19, 2-(2-Methyl-imidazol-1-yl)-pyrimidine-5-carboxylic acid cyclopropyl-[1-(5-methyl-pyrazin-2-yl)-piperidin-4-yl]-amide]	97
O=C(c1cnc(-c2ccncc2)nc1)N(C1CC1)C1CCN(c2nc(-c3ccccc3)no2)CC1 [Example 2, 2-Pyridin-4-yl-pyrimidine-5-carboxylic acid cyclopropyl-[1-(3-phenyl-[1,2,4]oxadiazol-5-yl)-piperidin-4-yl]-amide]	11
CCCc1noc(N2CCC(N(C(=O)c3cnc(-n4ccnc4CC)nc3)C3CC3)CC2)n1 [Example 23, 2-(2-Ethyl-imidazol-1-yl)-pyrimidine-5-carboxylic acid cyclopropyl-[1-(3-propyl-[1,2,4]oxadiazol-5-yl)-piperidin-4-yl]-amide]	103
CCc1cnc(N2CCC(N(C(=O)c3cnc(-c4cnco4)cn3)C3CC3)CC2)nc1 [Example 38, 5-Oxazol-5-yl-pyrazine-2-carboxylic acid cyclopropyl-[1-(5-ethyl-pyrimidin-2-yl)-piperidin-4-yl]-amide]	63
CC(C)c1noc(N2CCC(N(C(=O)c3cc(-c4ccc(C#N)cc4F)no3)C3CC3)CC2)n1 [Example 28, 3-(4-Cyano-2-fluoro-phenyl)-isoxazole-5-carboxylic acid cyclopropyl-[1-(3-isopropyl-[1,2,4]oxadiazol-5-yl)-piperidin-4-yl]-amide]	3
CCc1cnc(N2CCC(N(C(=O)c3cnc(-n4ccnc4)nc3)C3CC3)CC2)nc1 [Example 12, 2-Imidazol-1-yl-pyrimidine-5-carboxylic acid cyclopropyl-[1-(5-ethyl-pyrimidin-2-yl)-piperidin-4-yl]-amide]	35
CCc1nccn1-c1ncc(C(=O)N(C2CC2)C2CCN(c3noc(C4CC4)n3)CC2)cn1 [Example 26, 2-(2-Ethyl-imidazol-1-yl)-pyrimidine-5-carboxylic acid cyclopropyl-[1-(5-cyclopropyl-[1,2,4]oxadiazol-3-yl)-piperidin-4-yl]-amide]	156
CCc1cnc(N2CCC(N(C(=O)c3cnc(-c4ccc(S(C)(=O)=O)cc4)nc3)C3CC3)CC2)nc1 [Example 13, 2-(4-Methanesulfonyl-phenyl)-pyrimidine-5-carboxylic acid cyclopropyl-[1-(5-ethyl-pyrimidin-2-yl)-piperidin-4-yl]-amide]	24
Cc1nccn1-c1ncc(C(=O)N(C2CC2)C2CCN(c3noc(C4CC4)n3)CC2)cn1 [Example 24, 2-(2-Methyl-imidazol-1-yl)-pyrimidine-5-carboxylic acid cyclopropyl-[1-(5-cyclopropyl-[1,2,4]oxadiazol-3-yl)-piperidin-4-yl]-amide]	83
O=C(c1cnc(-n2ccnc2)nc1)N(C1CC1)C1CCN(c2nc(-c3ccccc3)no2)CC1 [Example 1, 2-Imidazol-1-yl-pyrimidine-5-carboxylic acid cyclopropyl-[1-(3-phenyl-[1,2,4]oxadiazol-5-yl)-piperidin-4-yl]-amide]	31
CCCc1noc(N2CCC(N(C(=O)c3noc(-c4ccc(C#N)cc4F)n3)C3CC3)CC2)n1 [Example 18, 5-(4-Cyano-2-fluoro-phenyl)-[1,2,4]oxadiazole-3-carboxylic acid cyclopropyl-[1-(3-propyl-[1,2,4]oxadiazol-5-yl)-piperidin-4-yl]-amide]	7
CCc1cnc(N2CCC(N(C(=O)c3ccc(-c4cnco4)nc3)C3CC3)CC2)nc1 [Example 34, N-Cyclopropyl-N-[1-(5-ethyl-pyrimidin-2-yl)-piperidin-4-yl]-6-oxazol-5-yl-nicotinamide]	27
O=C(c1cnc(-n2ccnc2)nc1)N(C1CC1)C1CCN(c2noc(C3CC3)n2)CC1 [Example 25, 2-Imidazol-1-yl-pyrimidine-5-carboxylic acid cyclopropyl-[1-(5-cyclopropyl-[1,2,4]oxadiazol-3-yl)-piperidin-4-yl]-amide]	103
Cc1nccn1-c1ncc(C(=O)N(C2CC2)C2CCN(c3ncc(C(F)(F)F)cc3F)CC2)cn1 [Example 27, 2-(2-Methyl-imidazol-1-yl)-pyrimidine-5-carboxylic acid cyclopropyl-(3′-fluoro-5′-trifluoromethyl-3,4,5,6-tetrahydro-2H-[1,2′]bipyridinyl-4-yl)-amide]	6
